Experiments:
[1] = tested on: U-937 cells; assay: Cytokine secretion by ELISA (Example 31); format: cell-based; details: for Cytokine Secretion IL-6 pg/ml Mean of 3 Replicates: drug 500 μM, LPS-activated cells
Description: In a search for a topical agent that can locally deplete levels of T-cells in the skin, apoptotic compounds were evaluated for their mechanisms of action. The ability that […] induce apoptosis by the same mechanisms was examined by cytokine secretion. […] Caspase-3 and cytokine (IL-2, IL-6, TNF, and IFN-γ) levels were determined and compared to controls at 23 and 46 hours. FdA was incorporated to evaluate the effect of the halogen group and Ara-C for its overlapping mechanisms of action. […] At the end of the treatment period, the cells were harvested and Caspase-3 induction was determined using a flow-cytometry-based method to quantify the percentage of cells that induced Caspase-3. The level of apoptosis is expressed as “% FITC shift”. Cytokine secretion (IL-2, IL-6, TNF, and IFN-γ) was measured at the same time by ELISA and is expressed in pg/mL. […]

[2] = tested on: lymphocytes; details: cited from earlier work
[3] = tested on: U937 monocytoid cells; assay: TUNEL assay, dAd, adenosine and adenine dose ranging (Example 24); format: cell-based; details: 2 days, no dCF
Description: U937 monocytoid cells were cultured in the presence of dAd at various concentrations of dAd (0, 50, 75, 100, 250 and 1000 micromoles/liter). The cells were incubated in dAd for 2 days. At the end of the treatment period, the cells were harvested for analysis by a TUNEL assay, a flow-cytometry-based method to quantify the percentage of cells that have undergone apoptosis. The level of apoptosis expressed as “% FITC shift”. The level of cell cycle arrest is expressed as “% PI shift”. As a positive control, the cells were exposed to 5 mM camptothecin for 2 days.

[4] = tested on: U937 monocytoid cells; assay: TUNEL assay, dAd added at different times after dCF wash-out (Example 22); format: cell-based; details: dCF 0 μM 2 days, wash, 2 more days
[5] = drug 50 uM, listed as dAd (Acros)
[6] = drug 50 uM, listed as dAd (Sigma)
[7] = drug 100 uM, listed as dAd (Acros)
[8] = drug 100 uM, listed as dAd (Sigma)
[9] = drug 250 uM, listed as dAd (Acros)
[10] = drug 250 uM, listed as dAd (Sigma)
[11] = drug 1000 uM, listed as dAd (Acros)
[12] = drug 1000 uM, listed as dAd (Sigma)

Nc1ncnc2c1ncn2[C@H]1C[C@H](O)[C@@H](CO)O1 [dAd, 2′-deoxyadenosine]
Cytokine Secretion IL-6 pg/ml Mean of 3 Replicates ([1]; 23 hr): 4 pg/mL
IL-6 inhibition after Caspase-3 induction ([1]; 46 hours, compared to no drug+LPS): 55%
Cytokine Secretion IL-6 pg/ml Mean of 3 Replicates ([1]; 46 hr): 4 pg/mL
potentiation of the growth inhibitory effect of dCF [2]: up to 1,000 fold
concentration at which cell cycle arrest begins [3]: 75 µM
concentration at which apoptosis is induced ([3]; progressively more at 250 and 1000): 100 µM
% FITC Shift [3, 5]: 0.7%
% PI Shift [3, 5]: 2.9%
% FITC Shift [3, 6]: 1.5%
% PI Shift [3, 6]: 3.2%
% FITC Shift ([3]; drug 75 uM): 1.8%
% PI Shift ([3]; drug 75 uM, listed as dAd (Acros)): 7.1%
% PI Shift ([3]; drug 75 uM, listed as dAd (Sigma)): 8.8%
% FITC Shift [3, 7]: 3.5%
% PI Shift [3, 7]: 9.8%
% FITC Shift [3, 8]: 9.0%
% PI Shift [3, 8]: 12.1%
% FITC Shift [3, 9]: 54.1%
% PI Shift [3, 9]: 14.6%
% FITC Shift [3, 10]: 65.8%
% PI Shift [3, 10]: 12.0%
% FITC Shift [3, 11]: 80.2%
% PI Shift [3, 11]: 32.6%
% FITC Shift [3, 12]: 79.2%
% PI Shift [3, 12]: 29.5%
% PI Shift ([4]; 50 μM dAd added 0 hr after wash-out): 1.4%
% PI Shift ([4]; 50 μM dAd added 6 hr after wash-out): 1.3%
% PI Shift ([4]; 50 μM dAd added 24 hr after wash-out): 1.1%
% PI Shift ([4]; 50 μM dAd added 48 hr after wash-out): 2.0%
